Experimental data published in patent publication EP2351737A1, “3-Amino-1-arylpropyl indoles and aza-substituted indoles” (F. Hoffmann-La Roche AG, priority 2005, dated 2007).
Structures can show the parent of a compound that is named as a salt.

Columns and labels:
[1] = biological target: T1, Human Serotonin Transporter (hSERT) (Homo sapiens, UniProt P31645); experiment: Human Serotonin Transporter (hSERT) Scintillation Proximity Assay (SPA), competition with [3H]-Citalopram; type: binding; conditions: membranes of HEK-293 cells expressing recombinant hSERT, Ki by Cheng-Prusoff; for Ki: read-out: pKi SERT (converted)
T1 construct: expressed in transfected cells; membranes prepared from them
From the text: Screening for Human Serotonin Transporter (hSERT) Antagonists Using a Scintillation Proximity Assay (SPA)
Scintillation Proximity Assay (SPA) works by bringing radioligand within close proximity to the bead's scintillant to stimulate light emission. […] Unbound radioligand produced no signal as a result of distant proximity to scintillant (lack of energy transfer).

[2] = biological target: Human Norepinephrine Transporter (hNET) (Homo sapiens, UniProt P23975); experiment: Human Norepinephrine Transporter (hNET) Scintillation Proximity Assay (SPA), competition with [3H]-Nisoxetine; conditions: membranes of HEK-293 cells expressing recombinant hNET, Ki by Cheng-Prusoff; for Ki: pKi NET
Human Norepinephrine Transporter (hNET), sequence (P23975 whole entry): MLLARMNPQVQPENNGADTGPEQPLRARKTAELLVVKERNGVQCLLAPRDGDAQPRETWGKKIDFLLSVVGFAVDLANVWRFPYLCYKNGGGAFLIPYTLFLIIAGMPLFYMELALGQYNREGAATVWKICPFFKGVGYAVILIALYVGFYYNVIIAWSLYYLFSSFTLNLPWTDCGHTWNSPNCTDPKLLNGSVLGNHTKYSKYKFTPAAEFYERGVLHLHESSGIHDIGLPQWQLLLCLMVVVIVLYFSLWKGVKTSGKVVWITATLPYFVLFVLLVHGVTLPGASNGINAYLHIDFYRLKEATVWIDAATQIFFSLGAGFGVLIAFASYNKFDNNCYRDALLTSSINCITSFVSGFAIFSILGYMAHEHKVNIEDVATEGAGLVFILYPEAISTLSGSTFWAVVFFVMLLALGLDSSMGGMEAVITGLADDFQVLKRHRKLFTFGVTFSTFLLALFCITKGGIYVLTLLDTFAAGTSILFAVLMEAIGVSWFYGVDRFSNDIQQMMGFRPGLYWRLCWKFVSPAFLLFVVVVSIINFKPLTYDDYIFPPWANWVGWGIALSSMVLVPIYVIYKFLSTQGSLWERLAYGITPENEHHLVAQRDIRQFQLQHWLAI

T1 sequence (P31645 whole entry): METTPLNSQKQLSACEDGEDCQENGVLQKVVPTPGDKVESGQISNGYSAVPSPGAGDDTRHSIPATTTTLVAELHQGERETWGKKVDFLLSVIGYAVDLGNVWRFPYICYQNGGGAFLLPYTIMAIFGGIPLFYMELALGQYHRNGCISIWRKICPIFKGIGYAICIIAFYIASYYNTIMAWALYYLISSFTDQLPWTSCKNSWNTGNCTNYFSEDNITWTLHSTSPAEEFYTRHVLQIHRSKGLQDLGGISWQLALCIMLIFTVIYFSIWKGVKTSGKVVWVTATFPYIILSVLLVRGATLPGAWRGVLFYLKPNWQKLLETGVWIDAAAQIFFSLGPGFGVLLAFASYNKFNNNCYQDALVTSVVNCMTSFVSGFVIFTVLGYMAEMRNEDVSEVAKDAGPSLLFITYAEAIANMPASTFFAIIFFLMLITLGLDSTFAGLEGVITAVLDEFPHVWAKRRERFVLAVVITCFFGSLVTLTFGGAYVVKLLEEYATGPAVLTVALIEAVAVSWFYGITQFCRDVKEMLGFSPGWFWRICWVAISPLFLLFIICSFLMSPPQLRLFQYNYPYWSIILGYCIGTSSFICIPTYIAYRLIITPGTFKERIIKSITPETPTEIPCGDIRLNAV

Compound	Ki [1]	Ki [2]	pKi SERT [1]	pKi NET [2]
CNCCC(c1ccccc1)c1ccc2sccc2c1 (stereo not shown) [Compound 143, (3-Benzo[b]thiophen-5-yl-3-phenyl-propyl)-methyl-amine]	22.4 nM	1.55 nM	–	–
[3,3-Bis-(7-fluoro-1H-indol-5-yl)-propyl]-methyl-amine [Compound 118]	–	–	7.43	8.87
[3-(1-Methanesulfonyl-1H-indol-5-yl)-3-phenyl-propyl]-methyl-amine hydrochloride [Compound 14]	–	–	7.55	6.57
[3-(1H-Indol-6-yl)-3-(2-methoxy-phenyl)-propyl]-methyl-amine [Compound 34]	–	–	7.63	6.59
CNCCC(c1ccc2[nH]ccc2c1)c1ccc2nccnc2c1 (stereo not shown) [Compound 123, [3-(1H-Indol-5-yl)-3-quinoxalin-6-yl-propyl]-methyl-amine]	47.9 nM	112 nM	–	–
CNCCC(c1cccc(F)c1)c1cc(Cl)c2[nH]ccc2c1 (stereo not shown) [Compound 108]	12.9 nM	2.88 nM	–	–
3-[1-(7-Fluoro-1H-indol-5-yl)-3-methylamino-propyl]-benzonitrile [Compound 110]	–	–	7.59	7.95
[3-(3,4-Dichloro-phenyl)-3-(7-fluoro-1H-indol-5-yl)-propyl]-methyl-amine [Compound 109]	–	–	7.9	7.56
[3-(7-Fluoro-1H-indol-5-yl)-3-(3-methoxy-phenyl)-propyl]-methyl-amine [Compound 100]	–	–	7.79	7.95
NCCC(c1ccccc1)c1cc(Cl)c2[nH]c(C(N)=O)cc2c1 (stereo not shown) [Compound 103, 5-(3-Amino-1-phenyl-propyl)-7-chloro-1H-indole-2-carboxylic acid amide]	145 nM	4.37 nM	–	–
CNCCC(c1ccc2[nH]ccc2c1)c1ccc2sccc2c1 (stereo not shown) [Compound 116, [3-Benzo[b]thiophen-5-yl-3-(1H-indol-5-yl)-propyl]-methyl-amine]	1.74 nM	5.01 nM	–	–
CNCCC(c1ccccc1)c1ccc2c(C#N)c[nH]c2c1 (stereo not shown) [Compound 28, 6-(3-Methylamino-1-phenyl-propyl)-1H-indole-3-carbonitrile]	–	–	9.72	6.89
CNCCC(c1ccccc1)c1ccc2[nH]ccc2c1 (stereo not shown) [Compound 42, [3-(1H-Indol-5-yl)-3-phenyl-propyl]-methyl-amine]	32.4 nM	–	–	8.0
CNCCC(c1ccccc1)c1cc(F)c2c(c1)c(C#N)cn2C (stereo not shown) [Compound 127, 7-Fluoro-1-methyl-5-(3-methylamino-1-phenyl-propyl)-1H-indole-3-carbonitrile]	8.32 nM	51.3 nM	–	–
[3-(7-Fluoro-1H-indol-5-yl)-3-(2-fluoro-phenyl)-propyl]-methyl-amine [Compound 95]	–	–	7.22	8.32
CNCCC(c1ccccc1)c1cc2cc[nH]c2cc1F (stereo not shown) [Compound 102, [3-(6-Fluoro-1H-indol-5-yl)-3-phenyl-propyl]-methyl-amine]	77.6 nM	28.8 nM	–	–
[3-(3,4-Dichloro-phenyl)-3-(1H-indol-5-yl)-propyl]-methyl-amine [Compound 107]	–	–	8.17	7.83
5-(3-Methylamino-1-phenyl-propyl)-1H-indole-3-carbonitrile [Compound 10]	–	–	9.42	7.03
[3-(1H-Indol-6-yl)-3-phenyl-propyl]-methyl-amine [Compound 41]	–	–	8.01	7.63
[3-(3-Chloro-1H-indazol-5-yl)-3-phenyl-propyl]-methyl-amine [Compound 57]	–	–	8.14	7.06
[3-(7-Fluoro-1H-indol-5-yl)-3-naphthalen-2-yl-propyl]-methyl-amine [Compound 106]	–	–	8.28	7.68
CNCCC(c1ccccc1)c1ccc2[nH]cc(C)c2c1 (stereo not shown) [Compound 15, Methyl-[3-(3-methyl-1H-indol-5-yl)-3-phenyl-propyl]-amine]	5.25 nM	40.7 nM	–	–
CNCCC(c1ccccc1)c1cc(C)c2[nH]ncc2c1 (stereo not shown) [Compound 76, Methyl-[3-(7-methyl-1H-indazol-5-yl)-3-phenyl-propyl]-amine]	17.4 nM	25.7 nM	–	–
CNCCC(c1ccccc1)c1ccc2[nH]cc(S(C)(=O)=O)c2c1 (stereo not shown) [Compound 16]	151 nM	724 nM	–	–
NCCC(c1ccc2ncccc2c1)c1ccc2[nH]ccc2c1 (stereo not shown) [Compound 120, 3-(1H-Indol-5-yl)-3-quinolin-6-yl-propylamine]	3.24 nM	141 nM	–	–

Compound	Ki [1]	Ki [2]	pKi SERT [1]	pKi NET [2]
CNCCC(c1ccccc1)c1cc(F)c2[nH]cc(C#N)c2c1 (stereo not shown) [Compound 19]	2.14 nM	56.2 nM	–	–
CNCCC(c1ccccc1)c1cc(OC)c2[nH]cc(C#N)c2c1 (stereo not shown) [Compound 96, 7-Methoxy-5-(3-methylamino-1-phenyl-propyl)-1H-indole-3-carbonitrile]	85.1 nM	97.7 nM	–	–
CNCCC(c1ccccc1)c1cc(F)c2[nH]ccc2c1 (stereo not shown) [Compound 13]	–	–	7.4	8.2
[3,3-Bis-(1H-indol-5-yl)-propyl]-methyl-amine [Compound 111]	–	–	7.92	9.12
CNCCC(c1ccc2[nH]ccc2c1)c1cccc2ccccc12 (stereo not shown) [Compound 115, [3-(1H-Indol-5-yl)-3-naphthalen-1-yl-propyl]-methyl-amine]	8.13 nM	43.7 nM	–	–
7-Chloro-5-(3-methylamino-1-phenyl-propyl)-1H-indole-2-carboxylic acid amide [Compound 105]	–	–	7.31	8.35
CNCC[C@H](c1ccccc1)c1ccc2[nH]nc(Cl)c2c1 [Compound 61, [(R)-3-(3-Chloro-1H-indazol-5-yl)-3-phenyl-propyl]-methyl-amine trifluoracetate]	3.39 nM	123 nM	–	–
CNCCC(c1ccc2[nH]ccc2c1)c1nccs1 (stereo not shown) [Compound 139, [3-(1H-Indol-5-yl)-3-thiazol-2-yl-propyl]-methyl-amine]	–	74.1 nM	–	–
[3-(5-Methoxy-1H-indol-6-yl)-3-phenyl-propyl]-methyl-amine [Compound 86]	–	–	8.01	7.63
CNCCC(c1ccccc1)c1ccc2ccn(C)c2c1 (stereo not shown) [Compound 9, Methyl-[3-(1-methyl-1H-indol-6-yl)-3-phenyl-propyl]-amine]	9.55 nM	74.1 nM	–	–
CNCCC(c1ccc2[nH]ccc2c1)c1cccc2cc[nH]c12 (stereo not shown) [Compound 121, [3-(1H-Indol-7-yl)-3-(1H-indol-5-yl)-propyl]-methyl-amine]	46.8 nM	56.2 nM	–	–
CNCCC(c1ccccc1)c1cc(C(F)(F)F)c2[nH]ncc2c1 (stereo not shown) [Compound 85, Methyl-[3-phenyl-3-(7-trifluoromethyl-1H-indazol-5-yl)-propyl]-amine]	21.4 nM	15.1 nM	–	–
CNCC[C@H](c1ccccc1)c1cc(C)c2[nH]ncc2c1 [Compound 78, Methyl-[3-(7-methyl-1H-indazol-5-yl)-3-(R)-phenyl-propyl]-amine]	10 nM	19.5 nM	–	–
5-(3-Amino-1-phenyl-propyl)-1H-indole-3-carbonitrile [Compound 70]	–	–	8.74	6.39
Cn1cc(C#N)c2cc(C(CCN)c3ccccc3)cc(F)c21 (stereo not shown) [Compound 126, 5-(3-Amino-1-phenyl-propyl)-7-fluoro-1-methyl-1H-indole-3-carbonitrile]	22.9 nM	398 nM	–	–
CNCCC(c1ccccc1)c1ccc2[nH]nc(OC(C)C)c2c1 (stereo not shown) [Compound 80, [3-(3-Isopropoxy-1H-indazol-5-yl)-3-phenyl-propyl]-methyl-amine]	33.1 nM	148 nM	–	–
[3-(7-Fluoro-1H-indol-5-yl)-3-(4-methoxy-phenyl)-propyl]-methyl-amine [Compound 98]	–	–	7.88	8.3
4-Methoxy-5-(3-methylamino-1-phenyl-propyl)-1H-indole-3-carbonitrile [Compound 89]	–	–	9.07	6.05
CNCC[C@H](c1ccccc1)c1cc(OC)c2[nH]ncc2c1 [Compound 83, [3-(7-Methoxy-1H-indazol-5-yl)-3-(R)-phenyl-propyl]-methyl-amine]	11.5 nM	53.7 nM	–	–
CNCCC(c1ccccc1)c1ccc2[nH]cc(C(N)=O)c2c1 (stereo not shown) [Compound 91, 5-(3-Methylamino-1-phenyl-propyl)-1H-indole-3-carboxylic acid amide]	33.9 nM	603 nM	–	–
CNCCC(c1ccccc1)c1ccc2[nH]c(C)cc2c1 (stereo not shown) [Compound 7, Methyl-[3-(2-methyl-1H-indol-5-yl)-3-phenyl-propyl]-amine]	11 nM	91.2 nM	–	–
CNCCC(c1ccc2c(c1)OCCN2C)c1ccc2[nH]ccc2c1 (stereo not shown) [Compound 114, [3-(1H-Indol-5-yl)-3-(4-methyl-3,4-dihydro-2H-benzo[1,4]oxazin-7-yl)-propyl]-methyl-amine]	77.6 nM	87.1 nM	–	–
CNCCC(c1ccccc1)c1ccc2[nH]ncc2c1 (stereo not shown) [Compound 51, [3-(1H-Indazol-5-yl)-3-phenyl-propyl]-methyl-amine hydrochloride]	15.8 nM	34.7 nM	–	–
CNCC[C@H](c1ccccc1)c1cc(F)c2[nH]cc(C#N)c2c1 [Compound 99, 7-Fluoro-5-(3-methylamino-1-(R)-phenyl-propyl)-1H-indole-3-carbonitrile]	0.661 nM	145 nM	–	–
